Test results reported in patent US20230321044A1, “TREATMENT OR PREVENTION METHOD FOR CHRONIC HEART FAILURE” (Japan Tobacco Inc., priority 2020, published 2023).
Entries after “also recorded” stand apart in the source; their conditions may differ.

Assays:
[1] = tested on: post-myocardial infarction heart failure rats; test: Assessment of cardiac function in rats with post-myocardial infarction heart failure (Test Example 1); assay type: in vivo, rat
Method: Male SD rats (8-week old, Japan SLC, Inc.) were anesthetized with pentobarbital, then, under controlled mechanical ventilation, underwent thoracotomy and permanent ligation of the left anterior descending coronary artery to prepare rats with post-myocardial infarction heart failure. A sham-operated group was prepared by undergoing only thoracotomy in the same way to expose the heart. Two weeks later, vehicle (0.5% methylcellulose solution) or Compound 1 (3 mg/kg group or Ascending Dose group) was orally administered once daily to the group of post-myocardial infarction heart failure rat, and the vehicle was orally administered once daily to the sham-operated group. The dose for the Ascending Dose group was started with 3 mg/kg, increased to 6 mg/kg after two weeks and to 8 mg/kg after two more weeks, and maintained at 8 mg/kg thereafter. After eight weeks of administration, an ultrasonograph (Aplio 300, Toshiba Medical Systems Corporation) was used to measure the left ventricular ejection fraction, and Catheter-tipped micromanometer (Model SPR-320, Millar Inc.) was inserted into the left ventricle via the left carotid artery to measure the left ventricular end-diastolic pressure. For statistical analysis, Aspin-Welch t test was conducted between the sham-operated vehicle-administered group and the vehicle-administered group of post-myocardial infarction heart failure rats. Steel’s multiple comparison test was conducted for the Compound 1 group to the vehicle group of post-myocardial infarction heart failure rats. The significance level was two-sided 5%. Form the results, it was confirmed that the vehicle-administered group of post-myocardial infarction heart failure rats developed HFrEF because the left ventricular ejection fraction was decreased and the left ventricular end-diastolic pressure was increased, compared with the sham-operated vehicle-administered group.

[2] = tested on: hypertensive heart failure rats; test: Assessment of cardiac function in rats with hypertensive heart failure (Test Example 2); assay type: in vivo, rat
Method: Male DIS/Eis (Dahl-Iwai S) rats (Dahl rats) (7-week old, Japan SLC, Inc.) were fed a high-salt diet (MF 8% sodium chloride-adjusted feed, Oriental Yeast Co., ltd.) to prepare hypertensive heart failure rats. Normal controls were fed a normal diet (CRF-1 solid, Oriental Yeast Co., ltd.). Three weeks later, after confirmation of the development of pathological condition (hypertension or cardiomegaly), vehicle (0.5% methylcellulose solution) or Compound 1 (3 mg/kg group or Ascending Dose group) was orally administered to the hypertensive heart failure rat group once daily, and the vehicle was orally administered once daily to the normal control group. […] After five weeks of administration, an ultrasonograph (Aplio 300, Toshiba Medical Systems Corporation) was used to measure the left ventricular ejection fraction, and a non-invasive automated blood pressure measuring device (BP-98A, Softlon Co.,Ltd.) was used to measure the systolic blood pressure. After six weeks of administration, ADVantage P-V catheter (Model FTH-1918B-E318, Transonic Scisense Inc.) was inserted into the left ventricle from the apex to measure the left ventricular end-diastolic pressure. […] For statistical analysis, Student test or Aspin-Welch t test was conducted between the vehicle-administered normal control group and the vehicle-administered group of hypertensive heart failure rats. Dunnett’s multiple test was conducted for the Compound 1 group to the vehicle group of hypertensive heart failure rats. The significance level was two-sided 5%. Form the results, it was confirmed that the hypertensive heart failure rats developed HFpEF because the EDPVRβ and left ventricular end-diastolic pressure were increased whereas the left ventricular ejection fraction was not decreased, compared with the normal control group. […] Compound 1 also had no effect on the urine volume in the hypertensive heart failure rats.

C[C@H]1C(=O)NC[C@@H]1C(=O)Nc1cc(-c2cc(F)cc(OC(C)(C)C)c2)n(C(F)(F)F)n1 [Compound 1]
left ventricular ejection fraction ([1]; 3 mg/kg group, oral once daily, eight weeks, vs vehicle, FIG. 2): higher value
left ventricular ejection fraction ([1]; Ascending Dose group (3, then 6, then 8 mg/kg), oral once daily, eight weeks, vs vehicle, p < 0.05, FIG. 2): significantly increased
left ventricular ejection fraction ([1]; dose groups not distinguished (3 mg/kg or Ascending Dose), oral once daily, eight weeks): increased
left ventricular end-diastolic pressure ([1]; post-myocardial infarction heart failure rats, oral once daily, eight weeks, in comparison with the vehicle, FIG. 1): lower value; also recorded: suppressed
HFrEF improving effect ([1]; post-myocardial infarction heart failure rats, overall conclusion): improved HFrEF; also recorded: has an HFrEF improving effect
EDPVRβ (end-diastolic pressure-volume relationship β) ([2]; 3 mg/kg group, oral once daily, six weeks, vs vehicle, FIG. 4): lower value
EDPVRβ (end-diastolic pressure-volume relationship β) ([2]; Ascending Dose group (3, then 6, then 8 mg/kg), oral once daily, six weeks, vs vehicle, p < 0.05, FIG. 4): significantly reduced
EDPVRβ (end-diastolic pressure-volume relationship β) ([2]; dose groups not distinguished, oral once daily, six weeks): reduced
left ventricular end-diastolic pressure ([2]; hypertensive heart failure (Dahl) rats, oral once daily, six weeks, vs vehicle, p < 0.05 and p < 0.01, FIG. 3): significantly reduced
systolic blood pressure ([2]; hypertensive heart failure rats, after five weeks of administration, FIG. 6): had no effect
urine volume ([2]; hypertensive heart failure rats, in comparison with the vehicle, FIG. 7): did not affect; also recorded: had no effect
HFpEF improving effect ([2]; hypertensive heart failure rats, overall conclusion): has an HFpEF improving effect
